Organism: Rattus norvegicus
Assay: Open TG-GATES - Regimen: Single
Type: toxicity, organism-based, Sprague-Dawley
Set-up: regimen Single, gender Male, age 6 weeks
Conditions: in vivo, po, 50 mg/kg, route gavage, dose level Middle; for APTT / Bas / Eos / Fbg / Hb / Ht / Lym / MCH / MCHC / MCV / Mono / Neu / PT / Plat / RBC / Ret / WBC: tissue Blood; for KIDNEY_L / KIDNEY_R / KIDNEY_TOTAL: tissue Kidney; for LIVER: tissue Liver; for A/G / ALP / ALT / AST / BUN / CRE / Ca / Cl / DBIL / GLC / IP / K / LDH / Na / PL / RALB / TBIL / TC / TG / TP / gamma-GTP: tissue Plasma

S=C=Nc1cccc2ccccc12 [1-NAPHTHYLISOTHIOCYANATE]
TERMINAL_BW (3 h): 223.2 g | APTT (3 h): 18.3 s | Bas (3 h): 0.2% | Eos (3 h): 1% | Fbg (3 h): 237 mg/dL | Hb (3 h): 13.7 g/dL | Ht (3 h): 38.1% | Lym (3 h): 76.6% | MCH (3 h): 21.4 pg | MCHC (3 h): 35.9% | MCV (3 h): 59.7 fL | Mono (3 h): 2.6% | Neu (3 h): 18.8% | PT (3 h): 11.6 s | Plat (3 h): 118.2 x10_4/uL | RBC (3 h): 639.2 x10_4/ul | Ret (3 h): 8% | WBC (3 h): 87.7 x10_2/uL | KIDNEY_L (3 h): 0.9 g | KIDNEY_R (3 h): 1 g | KIDNEY_TOTAL (3 h): 1.9 g | LIVER (3 h): 9.8 g | A/G (3 h): 1.7 | ALP (3 h): 1022.2 IU/L | ALT (3 h): 45 IU/L | AST (3 h): 80.2 IU/L | BUN (3 h): 9.6 mg/dL | CRE (3 h): 0.4 mg/dL | Ca (3 h): 10.8 mg/dL | Cl (3 h): 102.8 meq/L | DBIL (3 h): 0.1 mg/dL | GLC (3 h): 240.6 mg/dL | IP (3 h): 10.1 mg/dL | K (3 h): 3.9 meq/L | LDH (3 h): 179.8 IU/L | Na (3 h): 141.4 meq/L | PL (3 h): 154.2 mg/dL | RALB (3 h): 3.6 g/dL | TBIL (3 h): 0.1 mg/dL | TC (3 h): 85.2 mg/dL | TG (3 h): 77.4 mg/dL | TP (3 h): 5.7 g/dL | gamma-GTP (3 h): 0.8 IU/L | TERMINAL_BW (6 h): 220.8 g | APTT (6 h): 19.2 s | Bas (6 h): 0% | Eos (6 h): 0.4% | Fbg (6 h): 239.8 mg/dL | Hb (6 h): 13.9 g/dL | Ht (6 h): 38.9% | Lym (6 h): 79.2% | MCH (6 h): 21.3 pg | MCHC (6 h): 35.6% | MCV (6 h): 59.8 fL | Mono (6 h): 2.2% | Neu (6 h): 17% | PT (6 h): 12 s | Plat (6 h): 126.8 x10_4/uL | RBC (6 h): 651.4 x10_4/ul | Ret (6 h): 7% | WBC (6 h): 80.1 x10_2/uL | KIDNEY_L (6 h): 1 g | KIDNEY_R (6 h): 1 g | KIDNEY_TOTAL (6 h): 1.9 g | LIVER (6 h): 9.3 g | A/G (6 h): 1.5 | ALP (6 h): 936.2 IU/L | ALT (6 h): 36.6 IU/L | AST (6 h): 72.8 IU/L | BUN (6 h): 8.6 mg/dL | CRE (6 h): 0.4 mg/dL | Ca (6 h): 10.6 mg/dL | Cl (6 h): 101.8 meq/L | DBIL (6 h): 0.2 mg/dL | GLC (6 h): 321.6 mg/dL | IP (6 h): 10.2 mg/dL | K (6 h): 4.2 meq/L | LDH (6 h): 208 IU/L | Na (6 h): 140.2 meq/L | PL (6 h): 153.8 mg/dL | RALB (6 h): 3.5 g/dL | TBIL (6 h): 0.2 mg/dL | TC (6 h): 84.6 mg/dL | TG (6 h): 69.8 mg/dL | TP (6 h): 5.8 g/dL | gamma-GTP (6 h): 1 IU/L | TERMINAL_BW (9 h): 214.5 g | APTT (9 h): 17.9 s | Bas (9 h): 0% | Eos (9 h): 0.6% | Fbg (9 h): 254 mg/dL | Hb (9 h): 13.7 g/dL | Ht (9 h): 38.2% | Lym (9 h): 76.8% | MCH (9 h): 22.3 pg | MCHC (9 h): 35.9% | MCV (9 h): 62 fL | Mono (9 h): 2.2% | Neu (9 h): 19.2% | PT (9 h): 12 s | Plat (9 h): 133.4 x10_4/uL | RBC (9 h): 615.6 x10_4/ul | Ret (9 h): 7.2% | WBC (9 h): 80 x10_2/uL | KIDNEY_L (9 h): 0.9 g | KIDNEY_R (9 h): 0.9 g | KIDNEY_TOTAL (9 h): 1.8 g | LIVER (9 h): 8.8 g | A/G (9 h): 1.6 | ALP (9 h): 826 IU/L | ALT (9 h): 34.2 IU/L | AST (9 h): 60 IU/L | BUN (9 h): 10 mg/dL | CRE (9 h): 0.4 mg/dL | Ca (9 h): 10.7 mg/dL | Cl (9 h): 102 meq/L | DBIL (9 h): 0.2 mg/dL | GLC (9 h): 321.8 mg/dL | IP (9 h): 10 mg/dL | K (9 h): 4.3 meq/L | LDH (9 h): 150.4 IU/L | Na (9 h): 141.2 meq/L | PL (9 h): 147.8 mg/dL | RALB (9 h): 3.5 g/dL | TBIL (9 h): 0.2 mg/dL | TC (9 h): 79.8 mg/dL | TG (9 h): 72 mg/dL | TP (9 h): 5.8 g/dL | gamma-GTP (9 h): 1.2 IU/L | TERMINAL_BW (24 h): 214.8 g | APTT (24 h): 19.7 s | Bas (24 h): 0.6% | Eos (24 h): 0.4% | Fbg (24 h): 357 mg/dL | Hb (24 h): 14.3 g/dL | Ht (24 h): 37.9% | Lym (24 h): 48% | MCH (24 h): 22.4 pg | MCHC (24 h): 37.7% | MCV (24 h): 59.2 fL | Mono (24 h): 4.6% | Neu (24 h): 44.6% | PT (24 h): 12.2 s | Plat (24 h): 131.9 x10_4/uL | RBC (24 h): 639.6 x10_4/ul | Ret (24 h): 6% | WBC (24 h): 118.9 x10_2/uL | KIDNEY_L (24 h): 1 g | KIDNEY_R (24 h): 1 g | KIDNEY_TOTAL (24 h): 2 g | LIVER (24 h): 9.2 g | A/G (24 h): 1.3 | ALP (24 h): 1257.2 IU/L | ALT (24 h): 153.8 IU/L | AST (24 h): 366.6 IU/L | BUN (24 h): 10.4 mg/dL | CRE (24 h): 0.4 mg/dL | Ca (24 h): 10.4 mg/dL | Cl (24 h): 98 meq/L | DBIL (24 h): 0.9 mg/dL | GLC (24 h): 177.6 mg/dL | IP (24 h): 8.6 mg/dL | K (24 h): 3.5 meq/L | LDH (24 h): 617.6 IU/L | Na (24 h): 141.4 meq/L | PL (24 h): 218.2 mg/dL | RALB (24 h): 3.2 g/dL | TBIL (24 h): 1.1 mg/dL | TC (24 h): 107 mg/dL | TG (24 h): 64.8 mg/dL | TP (24 h): 5.7 g/dL | gamma-GTP (24 h): 6.2 IU/L

From ChEMBL document CHEMBL3885861, “Open TG-GATES”
